One data set relates to icSARS-CoV-2-mNG. The data set can be described thus: microbe, parasite or virus in culture. Format: cell-based, SARS-CoV-2. Particulars: Severe acute respiratory syndrome coronavirus 2, Caco-2, 48 h; read-out: half maximal inhibitory concentration (IC50) on virus replication.
The next data set can be described thus: in vitro. Particulars: human, Caco-2.
In another data set the target is SARS-CoV-2 PLpro (Severe acute respiratory syndrome coronavirus 2, UniProt P0DTD1). Put plainly: PLpro kinetic inhibition assay, cleavage of AMC peptide mimicking the C-terminus of human ISG15. Format: biochemical.

With `COc1cc(O)c(CC=C(C)C)c(O)c1C(=O)/C=C/c1ccc(O)cc1` [XN, xanthohumol], in the data set on icSARS-CoV-2-mNG, the IC50 came out at 3.28 µM. In the data set “in vitro”, this compound displayed a CC50 of 12.3 µM.
Turning to `CC(C)=CCc1c(O)cc2c(c1O)C(=O)C[C@@H](c1ccc(O)cc1)O2` [6-PN, 6-prenylnaringenin], the values for the IC50 in the data set on icSARS-CoV-2-mNG and on SARS-CoV-2 PLpro were 7.26 µM and 131 ± 10 µM, respectively. The CC50 in the data set “in vitro” was 22.6 µM.
For `COc1cc(O)c(CC=C(C)C)c2c1C(=O)CC(c1ccc(O)cc1)O2` (centres unmarked) [IX, isoxanthohumol], the results for the IC50 with icSARS-CoV-2-mNG and at SARS-CoV-2 PLpro were 20.1 µM and 59 ± 15 µM, respectively. Further, the CC50 in the data set “in vitro” is 19.5 µM.
Consider `CC(C)=CCc1c(O)cc(O)c2c1O[C@H](c1ccc(O)cc1)CC2=O` [8-PN, 8-prenylnaringenin], for which the IC50 in the data set on icSARS-CoV-2-mNG came to 23 µM; against SARS-CoV-2 PLpro it was 119 ± 13 µM. Also, the CC50 in the data set “in vitro” turned out to be 54.9 µM.

Values taken from EP4162932A1, “ANTIVIRAL HOP CONSTITUENTS” (HHV Hallertauer Hopfenveredelungsgesellschaft mbH, priority 2021, dated 2023).
